Data: patent US8487111B2, “Substituted oxazolidinones and their use” (Bayer Intellectual Property GmbH, priority 2007, dated 2013)
pIC50: −log10 of the molar value.

Tests used:
[1] = target: factor Xa (Homo sapiens (Human), UniProt P00742); test: Determination of the factor Xa-inhibitory activity in plasma samples (RVV-activated factor X, chromogenic substrate); type: biochemical; conditions: factor Xa inhibition in citrate plasma (Octapharma), RVV-stimulated, ChromozymX substrate
Procedure: a.4) Determination of the Factor Xa-Inhibitory Activity of the Potential Inhibitors in Plasma Samples
To determine the inhibition of factor Xa in plasma samples, the factor X present in plasma is activated by a protease from rattlesnake toxin. The factor Xa activity or its inhibition by potential inhibitors is then measured by addition of a chromogenic substrate.
Various concentrations of the substances to be tested are dissolved in dimethyl sulphoxide and mixed with an aqueous refludan solution (10 μg/ml). In clear 96-well plates having a flat bottom, 30 μl of citrate plasma (Octapharma) are mixed with 10 μl of the substance dilution. Then, either 20 μl of a solution of a rattlesnake toxin (Russel viper venom (RVV); RVV reagent: Pentapharm 121-06, final concentration 0.6 mU) in an aqueous calcium chloride solution buffer (final concentration of calcium chloride 0.05 M) or 20 μl of the aqueous calcium chloride solution (final concentration of calcium chloride 0.05 M) without RVV reagent (as reference for an unstimulated sample) are added. After addition of 20 μl of ChromozymX substrate (final concentration 1.6 mmol/l, Bachem L-1565, diluted in water) the samples are measured in a SpectraFluor Reader using a measurement filter of 405 nm each minute over a period of 20 minutes. The IC50 value is determined when about 70% of the maximum signal is reached (about 12 min).

[2] = target: thrombin (Homo sapiens (Human), UniProt P00734); test: Determination of the thrombin-inhibitory activity in plasma samples (ecarin, fluorogenic thrombin substrate); type: biochemical; conditions: thrombin inhibition in citrate plasma (Octapharma), ecarin-stimulated
Procedure: a.5) Determination of the Thrombin-Inhibitory Activity of the Potential Inhibitors in Plasma Samples
Various concentrations of the substances to be tested are dissolved in dimethyl sulphoxide and diluted with water. In white 96-well plates having a flat bottom, 20 μl of substance dilution are mixed with 20 μl of ecarin solution (ecarin reagent, from Sigma E-0504, final concentration 20 mU per batch) in Ca buffer (200 mM Hepes+560 mM sodium chloride+10 mM calcium chloride+0.4% PEG) or with 20 μl of Ca buffer (as unstimulated control). Furthermore, 20 μl of fluorogenic thrombin substrate (from Bachem I-1120, final concentration 50 μmol/l) and 20 μl of citrate plasma (from Octapharma) are added and homogenized thoroughly. The plate is measured in a SpectraFluorplus Reader using an excitation filter of 360 nm and an emission filter of 465 nm each minute over a period of 20 minutes. The IC50 value is determined when about 70% of the maximum signal is reached (about 12 min).

Chain of factor Xa (P00742 whole entry, looked up): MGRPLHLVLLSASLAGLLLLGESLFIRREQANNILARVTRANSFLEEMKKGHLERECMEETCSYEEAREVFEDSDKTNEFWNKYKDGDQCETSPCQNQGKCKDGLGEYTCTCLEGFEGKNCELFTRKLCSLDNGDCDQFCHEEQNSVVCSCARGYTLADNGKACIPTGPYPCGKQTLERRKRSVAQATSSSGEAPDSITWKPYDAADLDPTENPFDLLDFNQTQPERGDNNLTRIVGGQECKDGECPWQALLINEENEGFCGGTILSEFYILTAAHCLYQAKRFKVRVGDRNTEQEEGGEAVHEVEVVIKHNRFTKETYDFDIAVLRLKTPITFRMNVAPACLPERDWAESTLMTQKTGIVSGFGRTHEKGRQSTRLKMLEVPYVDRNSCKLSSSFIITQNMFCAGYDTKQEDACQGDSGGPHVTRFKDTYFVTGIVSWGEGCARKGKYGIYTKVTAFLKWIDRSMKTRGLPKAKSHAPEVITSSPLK
Chain of factor Xa (P00742 whole entry, looked up): as above

Compound	pIC50 [1]	pIC50 [2]
COCc1cc(N2C[C@H](CNC(=O)c3ccc(Cl)s3)OC2=O)ccc1-n1cccc(CCO)c1=O [Example 8]	6.78	7.80
Cc1cc(N2C[C@H](CNC(=O)c3ccc(Cl)s3)OC2=O)ccc1-n1cccc(CO)c1=O [Example 2, 5-Chloro-N-[((5S)-3-{4-[3-(hydroxymethyl)-2-oxopyridin-1(2H)-yl]-3-methylphenyl}-2-oxo-1,3-oxazolidin-5-yl)methyl]thiophene-2-carboxamide]	7.68	6.70
Cc1cc(N2C[C@H](CNC(=O)c3ccc(Cl)s3)OC2=O)ccc1-n1cccc(CCO)c1=O [Example 6, 5-Chloro-N-[((5S)-3-{4-[3-(2-hydroxyethyl)-2-oxopyridin-1(2H)-yl]-3-methylphenyl}-2-oxo-1,3-oxazolidin-5-yl)methyl]thiophene-2-carboxamide]	7.15	6.73
Cc1cc(N2C[C@H](CNC(=O)c3ccc(Cl)s3)OC2=O)ccc1-n1cccc(CCCO)c1=O [Example 10, 5-Chloro-N-{[(5S)-3-{4-[3-(3-hydroxypropyl)-2-oxopyridin-1(2H)-yl]-3-methylphenyl}-2-oxo-1,3-oxazolidin-5-yl]methyl}thiophene-2-carboxamide]	7.40	7.13
